This assay concerns the target T1, cloned human glucagon receptor (Homo sapiens, UniProt P47871).
T1 construct: expressed in transfected cells; plasma membrane preparation
Nature of the assay: Glucagon Binding Assay (II). The following applies: for inhibition at 1 µM: screened at 1 μM, library compounds, read-out: displacement of the glucagon tracer when screened at 1 μM concentration in the glucagon binding assay II; for IC50: plasma membranes of BHK cells expressing the receptor, read-out: Glu Bd Assay (II) IC50. How it is done: Binding of compounds to the glucagon receptor was determined in a competition binding assay using the cloned human glucagon receptor.
The receptor inserted in the pLJ6′ expression vector using EcoRI/SSt1 restriction sites (Lok et al.) was expressed in a baby hamster kidney cell line (A3 BHK 570-25).
The homogenate was resuspended and centrifuged again. The final precipitate containing the plasma membranes was suspended in buffer and stored at −80° C. until use.
Binding assays were carried out in duplicate in polypropylene tubes or microtiter plates. The buffer used in this assay was 50 mM HEPES pH 7.4 containing 5 mM EGTA, 5 mM MgCl2 and 0.005% Tween 20. Sample (glucagon (Bachem CA) or test compounds) was added to each tube or well. Tracer (˜25.000 cpm) was diluted in buffer and was added to each tube or well. 0.5 mg freshly thawed plasma membrane protein diluted in buffer was then added in aliquots to each tube or well. Tubes or plates were incubated at 37° C. for 1 hour. Non-specific binding was determined with 10^−7 M of glucagon. Bound tracer and unbound tracer were then separated by vacuum filtration. The tubes or wells were washed twice with 0.01% Triton X-100 buffer. Scintillation fluid was added to the plates and radioactivity was quantified using a scintillation counter.

Where only a bound is given, the exact number is not on record here.

T1 sequence (P47871 26-477): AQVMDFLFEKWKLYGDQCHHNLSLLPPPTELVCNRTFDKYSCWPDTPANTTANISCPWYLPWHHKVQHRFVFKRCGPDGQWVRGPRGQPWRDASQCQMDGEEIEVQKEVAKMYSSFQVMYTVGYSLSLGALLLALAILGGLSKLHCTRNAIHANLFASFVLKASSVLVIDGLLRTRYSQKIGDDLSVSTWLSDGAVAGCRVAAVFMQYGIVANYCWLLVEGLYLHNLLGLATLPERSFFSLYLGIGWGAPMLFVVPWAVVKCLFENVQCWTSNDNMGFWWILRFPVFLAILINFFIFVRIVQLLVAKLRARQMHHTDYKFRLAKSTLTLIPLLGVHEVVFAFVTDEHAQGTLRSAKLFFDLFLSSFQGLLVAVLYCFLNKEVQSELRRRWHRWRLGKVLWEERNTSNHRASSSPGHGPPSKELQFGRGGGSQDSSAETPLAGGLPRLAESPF

In the case of `COc1ccc(CN(Cc2ccc(C(=O)NCCC(=O)O)cc2)Cc2ccc(C(C)C)cc2)cc1OC` [Example 149, 3-(4-{[(3,4-Dimethoxybenzyl)-(4-isopropylbenzyl)amino]methyl}benzoylamino)propionic acid], the inhibition at 1 µM was > 50%.

With `COc1ccc(CN(Cc2ccc(C(C)C)cc2)Cc2ccc(C(=O)NCCC(=O)O)s2)cc1OC` [Example 150, 3-(5-{[(3,4-Dimethoxybenzyl)-(4-isopropylbenzyl)amino]methyl}thiophene-2-carbonylamino)propionic acid], the inhibition at 1 µM is > 50%.

Turning to `COc1ccc(CN(Cc2ccc(C(=O)NCCC(=O)O)cc2)Cc2cccc(Oc3cccc(C(F)(F)F)c3)c2)cc1OC` [Example 151, 3-(4-{[(3,4-Dimethoxybenzyl)-(3-[3-trifluoromethylphenoxy]benzyl)amino]methyl}benzoylamino)propionic acid], the inhibition at 1 µM was > 50%.

For `COc1ccc(CN(Cc2cccc(Oc3cccc(C(F)(F)F)c3)c2)Cc2ccc(C(=O)NCCC(=O)O)s2)cc1OC` [Example 152, 3-(5-{[(3,4-Dimethoxybenzyl)-(3-[3-trifluoromethylphenoxy]benzyl)amino]methyl}thiophene-2-carbonylamino)propionic acid], the inhibition at 1 µM is > 50%.

Broadly, the IC50 is the concentration that inhibits the measured activity by half. In the case of `Cc1ccc(CN(CCc2ccc(Cl)cc2Cl)Cc2ccc(C(=O)NCCC(=O)O)cc2)cc1` [Example 153], the IC50 was 454 nM.

On to `O=C(O)CCNC(=O)c1ccc(CN(Cc2cccc(Cl)c2)Cc2cccc(Cl)c2)cc1` [Example 154, 3-(4-{[Bis-(3-chlorobenzyl)amino]methyl}benzoylamino)propionic acid], for which the IC50 amounted to 167 nM.

`O=C(O)CCNC(=O)c1ccc(CN(CCC(c2ccccc2)c2ccccc2)Cc2ccc3c(c2)OCO3)cc1` [Example 155, 3-(4-{[(3,3-Diphenylpropyl)-(3,4-methylenedioxybenzyl)amino]methyl}benzoylamino)propionic acid]: the IC50 came to 823 nM.

For the compound `CC(C)(C)C1CCC(N(Cc2ccc(C(=O)NCCc3nnn[nH]3)cc2)C(=O)Nc2ccc(OC(F)(F)F)cc2)CC1` (stereo not shown) [Example 156, 4-[1-(4-tert-Butylcyclohexyl)-3-(4-trifluoromethoxyphenyl)ureidomethyl]-N-[2-(1H-tetrazol-5-yl)ethyl]benzamide], the IC50 came out at 146 nM.

`CC(C)(C)C1CCC(N(Cc2ccc(C(=O)NCCc3nnn[nH]3)cc2)C(=O)Nc2cc(Cl)cc(Cl)c2)CC1` (stereo not shown) [Example 157, 4-[1-(4-tert-Butylcyclohexyl)-3-(3,5-dichlorophenyl)ureidomethyl]-N-[2-(1H-tetrazol-5-yl)ethyl]benzamide]: the IC50 came out at 250 nM.

As to `CC(C)(C)[C@H]1CC[C@H](N(Cc2ccc(C(=O)Nc3nn[nH]n3)cc2)C(=O)Nc2ccc(OC(F)(F)F)cc2)CC1` [Example 158, 4-[1-(trans-4-tert-Butylcyclohexyl)-3-(4-trifluoromethoxyphenyl)ureidomethyl]-N-(2H-tetrazol-5-yl)benzamide], the IC50 turned out to be 7 nM.

Consider `CC(C)(C)C1CCC(N(Cc2ccc(C(=O)Nc3nnn[nH]3)cc2)C(=O)Nc2ccc(Cl)cc2)CC1` (stereo not shown) [Example 159, 4-[1-(4-tert-Butylcyclohexyl)-3-(4-chlorophenyl)ureidomethyl]-N-(1H-tetrazol-5-yl)benzamide], for which the inhibition at 1 µM is > 50%.

Turning to `CC(C)(C)C1CCC(N(Cc2ccc(C(=O)Nc3ccc4c(c3)OCCO4)cc2)C(=O)Nc2ccc(Cl)cc2)CC1` (stereo not shown) [Example 160, 4-[1-(4-tert-Butylcyclohexyl)-3-(4-chlorophenyl)ureidomethyl]-N-(2,3-dihydro-1,4-benzodioxin-6-yl)benzamide], the inhibition at 1 µM is > 50%.

With `CC(C)(C)C1CCC(N(Cc2ccc(C(=O)Nc3ccc4c(c3)OCCO4)cc2)C(=O)Nc2ccc(OC(F)(F)F)cc2)CC1` (stereo not shown) [Example 161, 4-[1-(4-tert-Butylcyclohexyl)-3-(4-trifluoromethoxyphenyl)ureidomethyl]-N-(2,3-dihydro-1,4-benzodioxin-6-yl)benzamide], the inhibition at 1 µM was > 50%.

Consider `CC(C)(C)C1CCC(N(Cc2ccc(C(=O)Nc3ccc(O)c([N+](=O)[O-])c3)cc2)C(=O)Nc2ccc(Cl)cc2)CC1` (stereo not shown) [Example 162, 4-[1-(4-tert-Butylcyclohexyl)-3-(4-chlorophenyl)ureidomethyl]-N-(4-hydroxy-3-nitrophenyl)benzamide], for which the inhibition at 1 µM is > 50%.

Take `CC(C)(C)C1CCC(N(Cc2ccc(C(=O)Nc3ccc(O)c([N+](=O)[O-])c3)cc2)C(=O)Nc2ccc(OC(F)(F)F)cc2)CC1` (stereo not shown) [Example 163, 4-[1-(4-tert-Butylcyclohexyl)-3-(4-trifluoromethoxyphenyl)ureidomethyl]-N-(4-hydroxy-3-nitrophenyl)benzamide]: the inhibition at 1 µM is > 50%.

As for `CC(C)(C)C1CCC(N(Cc2ccc(C(=O)Nc3ncnc4[nH]ncc34)cc2)C(=O)Nc2ccc(Cl)cc2)CC1` (stereo not shown) [Example 164, 4-[1-(4-tert-Butylcyclohexyl)-3-(4-chlorophenyl)ureidomethyl]-N-(1H-pyrazolo[3,4-d]pyrimidin-4-yl)benzamide], the inhibition at 1 µM is > 50%.

Consider `CC(C)(C)C1CCC(N(Cc2ccc(C(=O)Nc3ncnc4[nH]ncc34)cc2)C(=O)Nc2ccc(OC(F)(F)F)cc2)CC1` (stereo not shown) [Example 165, 4-[1-(4-tert-Butylcyclohexyl)-3-(4-trifluoromethoxyphenyl)ureidomethyl]-N-(1H-pyrazolo[3,4-d]pyrimidin-4-yl)benzamide], for which the inhibition at 1 µM was > 50%.

Regarding `CC(C)(C)C1CCC(N(Cc2ccc(C(=O)Nc3ccc4c(c3)C(=O)NC4=O)cc2)C(=O)Nc2ccc(Cl)cc2)CC1` (stereo not shown) [Example 166, 4-[1-(4-tert-Butylcyclohexyl)-3-(4-chlorophenyl)ureidomethyl]-N-(1,3-dioxo-2,3-dihydro-1H-isoindol-5-yl)benzamide], the inhibition at 1 µM is > 50%.

For `CC(C)(C)C1CCC(N(Cc2ccc(C(=O)Nc3ccc4c(c3)OCCO4)cc2)C(=O)Nc2cc(Cl)cc(Cl)c2)CC1` (stereo not shown) [Example 168, 4-[1-(4-tert-Butylcyclohexyl)-3-(3,5-dichlorophenyl)ureidomethyl]-N-(2,3-dihydro-1,4-benzodioxin-6-yl)benzamide], the inhibition at 1 µM was > 50%.

In the case of `CC(C)(C)C1CCC(N(Cc2ccc(C(=O)Nc3ccc(O)c([N+](=O)[O-])c3)cc2)C(=O)Nc2cc(Cl)cc(Cl)c2)CC1` (stereo not shown) [Example 169, 4-[1-(4-tert-Butylcyclohexyl)-3-(3,5-dichlorophenyl)ureidomethyl]-N-(4-hydroxy-3-nitrophenyl)benzamide], the inhibition at 1 µM is > 50%.

Consider `CC(C)(C)C1CCC(N(Cc2ccc(C(=O)Nc3ncnc4[nH]ncc34)cc2)C(=O)Nc2cc(Cl)cc(Cl)c2)CC1` (stereo not shown) [Example 170, 4-[1-(4-tert-Butylcyclohexyl)-3-(3,5-dichlorophenyl)ureidomethyl]-N-(1H-pyrazolo[3,4-d]pyrimidin-4-yl)benzamide], for which the inhibition at 1 µM was > 50%.

For `CC(C)(C)C1CCC(N(Cc2ccc(C(=O)Nc3ccc4c(c3)C(=O)NC4=O)cc2)C(=O)Nc2cc(Cl)cc(Cl)c2)CC1` (stereo not shown) [Example 171, 4-[1-(4-tert-Butylcyclohexyl)-3-(3,5-dichlorophenyl)ureidomethyl]-N-(1,3-dioxo-2,3-dihydro-1H-isoindol-5-yl)benzamide], the inhibition at 1 µM is > 50%.

Source of the values: patent US6875760B2 (Novo Nordisk A/S, priority 1999, dated 2005).
